# Results published in patent publication US20070202578A1, “Production of globosides oligosaccharides using metabolically engineered microorganisms” (priority 2005, published 2007).
# Target: T1, LgtD protein (Haemophilus influenzae, UniProt Q57287)
# T1 construct: made in house; host or cells: strain overexpressing lgtD; E. coli K12 derivative is inferred from the lgtD strains described, e.g. TA21 with pACT3-lgtD; used as crude extract
# Experiment: enzymatic assays with crude extracts from a strain overexpressing the lgtD gene (donor Km with globotriose or globotetraose as acceptor)
# Type: biochemical
# T1 sequence (Q57287 whole entry): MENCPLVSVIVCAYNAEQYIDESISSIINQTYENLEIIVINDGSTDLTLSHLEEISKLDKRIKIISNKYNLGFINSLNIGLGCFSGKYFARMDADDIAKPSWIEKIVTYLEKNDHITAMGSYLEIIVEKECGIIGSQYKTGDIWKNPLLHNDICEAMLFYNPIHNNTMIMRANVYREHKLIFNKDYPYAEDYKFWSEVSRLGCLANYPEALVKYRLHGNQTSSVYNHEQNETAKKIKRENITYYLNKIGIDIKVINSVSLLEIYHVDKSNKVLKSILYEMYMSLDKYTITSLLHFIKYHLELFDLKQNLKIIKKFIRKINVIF
structure (smiles),measurement,setting,value
CC(=O)N[C@H]1[C@@H](OP(=O)(O)OP(=O)(O)OC[C@H]2O[C@@H](n3ccc(=O)[nH]c3=O)[C@H](O)[C@@H]2O)O[C@H](CO)[C@H](O)[C@@H]1O [UDP-GalNAc],"Km for UDP-GalNAc, fold lower than for UDP-Gal",globotriose as the acceptor,6 fold
same,fold increase in the Km for UDP-GalNAc,replacement of globotriose by globotetraose as the acceptor,20 fold
